In patent publication US11254676B2, “Pyrazole derivative compound and use thereof” (HANMI PHARM. CO., LTD., priority 2017, dated 2022):

Columns and labels:
LSD1 = LSD1 (Homo sapiens (Human), UniProt O60341); test: LSD1 histone demethylase inhibition, LSD1 fluorescence analysis kit (BPS Bioscience); format: biochemical; conditions: H2O2/HRP/Amplex Red fluorescence readout
Text: The results are expressed as an IC50 value. As for a control, GSK2879552 (available from GlaxoSmithKline USA) was used.

NCI-H1417 cells = test: Cell growth suppression test, CellTiter-Glo Luminescent Cell Viability Assay; format: cell-based; conditions: Homo sapiens, 240 h; NCI-H1417 cells treated for 10 days
Method: Cell growth suppression effects of the synthesized compounds on NCI-H1417 cells were identified. The cells were treated with the synthesized compounds for 10 days. Then, in order to test the cell growth suppression, CellTiter-Glo Luminescent Cell Viability Assay (available from Promega, USA) was used. This test is to measure emission signals proportional to the number of ATPs based on a fixed amount of ATPs, which represents the presence of metabolically active cells, thereby determining the number of viable cells. The results are expressed as a GI50 value. As for a control, GSK2879552 (available from GlaxoSmithKline USA) was used.

IC50 (LSD1) | GI50 (NCI-H1417 cells) | Compound
0.311 µM | 0.591 µM | O=C(O)c1ccc(CN2CCC(CN[C@@H]3C[C@H]3c3ccccc3)CC2)cc1 [Control, GSK2879552, reference compound]
0.021 µM | 0.048 µM | CN[C@@H]1CCCN(C(=O)c2cc(-c3ccc(C#N)c(F)c3)n(-c3ccc(C4CC4)cc3F)n2)C1 [Example 6, (R)-4-(1-(4-cyclopropyl-2-fluorophenyl)-3-(3-(methylamino)piperidine-1-carbonyl)-1H-pyrazole-5-yl)-2-fluorobenzonitrile]
 | 0.173 µM | N#Cc1ccc(-c2cc(C(=O)N3CCC[C@@H](N)C3)nn2-c2ccc3c(c2)CCC3)cc1F [Example 88, (R)-4-(3-(3-aminopiperidine-1-carbonyl)-1-(2,3-dihydro-1H-inden-5-yl)-1H-pyrazole-5-yl)-2-fluorobenzonitrile]

Compound | IC50 (LSD1) | GI50 (NCI-H1417 cells)
CN[C@@H]1CCCN(C(=O)c2cc(-c3ccc(C#N)cc3)n(-c3ccc4c(c3)CCC4)n2)C1 [Example 89, (R)-4-(1-(2,3-dihydro-1H-inden-5-yl)-3-(3-(methylamino)piperidine-1-carbonyl)-1H-pyrazole-5-yl)benzonitrile] |  | 0.071 µM
